Numbers after ± are expanded uncertainties.
Test: Molar enthalpy of transition or fusion
Settings: Adiabatic calorimetry

Molar enthalpy of transition or fusion (Crystal 1): 2.71 ± 0.055 kcal/mol
Molar enthalpy of transition or fusion (Crystal 2): 0.43 ± 0.0454 kcal/mol
SMILES: CC(C)COCC(C)C [diisobutyl ether]

From the NIST ThermoML archive (doi:10.1021/je800998u)
